Assay [1] has as its target T1, MPS1 (Homo sapiens, UniProt P33981).
T1 sequence (P33981 1-857): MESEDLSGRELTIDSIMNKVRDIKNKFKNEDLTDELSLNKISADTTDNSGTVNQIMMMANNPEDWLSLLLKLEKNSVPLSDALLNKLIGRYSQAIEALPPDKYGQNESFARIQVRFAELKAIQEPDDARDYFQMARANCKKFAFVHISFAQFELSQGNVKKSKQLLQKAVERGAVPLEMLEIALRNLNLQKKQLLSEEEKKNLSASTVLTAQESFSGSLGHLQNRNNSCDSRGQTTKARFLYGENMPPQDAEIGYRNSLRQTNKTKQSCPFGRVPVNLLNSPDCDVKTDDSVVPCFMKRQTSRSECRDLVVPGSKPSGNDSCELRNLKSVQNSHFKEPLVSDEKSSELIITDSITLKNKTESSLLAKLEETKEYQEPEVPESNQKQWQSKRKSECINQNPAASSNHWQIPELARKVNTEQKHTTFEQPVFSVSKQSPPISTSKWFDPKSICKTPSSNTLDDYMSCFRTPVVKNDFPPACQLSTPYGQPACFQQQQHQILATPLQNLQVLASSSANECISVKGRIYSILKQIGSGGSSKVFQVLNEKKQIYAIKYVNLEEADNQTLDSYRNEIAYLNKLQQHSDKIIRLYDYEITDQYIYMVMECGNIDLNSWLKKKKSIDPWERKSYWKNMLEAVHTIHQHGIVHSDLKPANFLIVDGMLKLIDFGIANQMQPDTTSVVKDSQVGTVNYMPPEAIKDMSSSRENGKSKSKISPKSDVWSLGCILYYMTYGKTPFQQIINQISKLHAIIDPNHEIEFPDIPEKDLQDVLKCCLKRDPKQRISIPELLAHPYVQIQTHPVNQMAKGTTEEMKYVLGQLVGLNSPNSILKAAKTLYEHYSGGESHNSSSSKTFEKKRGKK
Put plainly: In vitro kinase assay on MPS1. The class given is biochemical. The settings on record: for MPS1 inhibition in vitro: 1 µM.

Assay [2] concerns P-S10-H3 (AURORA B substrate). Put plainly: P-S10-H3 levels by Western blotting in mitotic HeLa cell lysates. It counts as cell-based, human.
In assay [3] the test system is HeLa cells. Kind of assay: Cytokinesis, time-lapse experiment. The class given is cell-based, human.
The next assay concerns BUB1. Kind of assay: In vitro kinase assay on BUB1. The class given is biochemical, human.
Assay [4] has as its system P-S7–CENP-A (AURORA B substrate). Put plainly: Kinetochore P-S7–CENP-A levels, immunofluorescence. The class given is cell-based, human.
Assay [5] concerns the target T1, MPS1. Kind of assay: Kinetochore localization of MPS1, immunofluorescence. It counts as cell-based. The following applies: 0.5 µM; nocodazole.
For assay [6], the system named is ROD, ZWILCH, ZW10, SPINDLY, MAD1. Put plainly: Kinetochore localization of RZZ, SPINDLY and MAD1, immunofluorescence. The class given is cell-based, human.
Another assay deals with MAD2. The settings on record: 100 nM hesperadin, ref Yang et al., 2009, cited from earlier work.
The subject of assay [7] is HeLa cells. Kind of assay: Spindle checkpoint: duration of mitotic arrest, time-lapse video microscopy. The class given is cell-based, human.
Assay [8] concerns the target human AURORA B1–344–INCENP835–903 complex (Homo sapiens, UniProt Q96GD4). Put plainly: In vitro kinase assay on AURORA B–INCENP complex, substrate histone H3. It counts as biochemical.
The test system of assay [9] is HeLa cells. Kind of assay: Chromosome congression / alignment, immunofluorescence. The following applies: 100 µM. It counts as cell-based, human.
The subject of the next assay is CDK1–CYCLIN B. The following applies: 1 µM.
Another assay concerns HASPIN. The following applies: 1 µM.
In a further assay the test system is NEK2A. The following applies: 1 µM.
A further assay has as its system PLK1. The following applies: 1 µM.
A further assay deals with PRP4. The following applies: 1 µM.
For a further assay, the system named is TAO1. The settings on record: 1 µM.
The test system of assay [10] is HeLa cells. The following applies: concentrations up to 10 µM; MG132.
The subject of assay [11] is HeLa cells. The following applies: cold treatment.
For assay [12], the system named is HeLa cells.
For a further assay, the system named is AURORA B. The settings on record: HeLa cells.
For another assay, the system named is MAPKs. The following applies: 1 µM; ref D’Alise et al., 2008; cited from earlier work.

Each structure is given as a SMILES string. Entries after “also recorded” stand apart in the source; their conditions may differ. Like-named read-outs stand apart in the source and are kept apart here.

Here are results for seven compounds from paper PMC2911657 (The Journal of Cell Biology, 2010).

Sequence of human AURORA B1–344–INCENP835–903 complex (Q96GD4 whole entry): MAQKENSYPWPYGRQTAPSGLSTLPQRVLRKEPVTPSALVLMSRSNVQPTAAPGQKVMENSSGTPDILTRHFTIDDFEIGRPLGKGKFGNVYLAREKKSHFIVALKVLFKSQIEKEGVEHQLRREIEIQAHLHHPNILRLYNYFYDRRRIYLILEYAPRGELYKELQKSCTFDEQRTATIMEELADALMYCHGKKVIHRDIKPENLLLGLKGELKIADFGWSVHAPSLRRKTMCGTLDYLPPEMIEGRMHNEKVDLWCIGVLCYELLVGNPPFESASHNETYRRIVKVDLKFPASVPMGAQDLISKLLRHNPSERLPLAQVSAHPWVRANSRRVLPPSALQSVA
Sequence of human AURORA B1–344–INCENP835–903 complex (Q9NQS7 835-903 partner limits assumed): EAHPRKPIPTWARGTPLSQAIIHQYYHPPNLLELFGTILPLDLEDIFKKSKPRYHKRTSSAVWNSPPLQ

As to `COc1cc2c(Nc3ccc(NC(=O)c4ccccc4)cc3)ncnc2cc1OCCCN1CCOCC1` [ZM447439], at MPS1 [1], the “MPS1 inhibition in vitro” value was “did not inhibit”. Moreover, the “concentration inhibiting P-S10-H3” value in assay [2] (Western blotting) is no more than 500 nM. For the same compound, the “concentration range in which cytokinesis is impaired” value in the assay with HeLa cells [3] (time-lapse) fell in the range of 0.1 to 0.5 µM.
For the compound `CCS(=O)(=O)Nc1ccc2c(c1)/C(=C(/Nc1ccc(CN3CCCCC3)cc1)c1ccccc1)C(=O)N2` [hesperadin], the “MPS1 inhibition in vitro” value on MPS1 [1] is “failed to observe significant MPS1 (and BUB1) inhibition”. Besides, in the assay on BUB1 (1 µM hesperadin), the “BUB1 inhibition in vitro” value is “failed to observe significant MPS1 (and BUB1) inhibition”. Further, the “cells with impaired cytokinesis” value in the assay on HeLa cells [3] (5–10 nM range) is 100%. Besides, in [4] (100 nM), the “P-S7–CENP-A antigen” value is recorded as “invisible”. Further, the MPS1 kinetochore staining entry on MPS1 [5] is on record as “prevented kinetochore localization”. The “MAD1 and RZZ complex at kinetochores” value in assay [6] (0.5–1.0 µM, high concentrations of nocodazole, unpublished data) is “lost from kinetochores”. Besides, the MAD2 at kinetochores result was “retained on kinetochores” in the assay with MAD2 (high nocodazole (3.2 µM)) and “absent from kinetochores” with MAD2 (low nocodazole concentrations).
For `N#CC(=C(/N)Sc1ccccc1N)/C(C#N)=C(/N)Sc1ccccc1N` [U0126], the “effect on duration of the spindle checkpoint” value with HeLa cells [7] (10 µM) is “does not affect the duration of the spindle checkpoint”.
Regarding `Oc1c2ccccc2c2c3c(cccc13)N=N2` [SP600125], the “IC50 for AURORA B compared with IC50 for MPS1” value in assay [8] is recorded as “significantly lower”. The same compound displayed an IC50 at MPS1 [1] of roughly 2500 nM.
Turning to `Cc1ccc2c(c1)C(=O)C1(O)CCN(c3ccccc3)C1=N2` (stereo not drawn) [blebbistatin], the “effect on chromosome alignment” value in the assay with HeLa cells [9] is “did not cause any evident effects; also recorded: does not cause evident perturbations”. The “ability of mitotic HeLa cells to maintain a nocodazole-mediated arrest” value in the assay on HeLa cells [7] (unpublished data) is reported as “did not significantly affect”.
For `c1nc2nc(Nc3ccc(N4CCOCC4)cc3)nc(NC3CCCCC3)c2[nH]1` [reversine], the “effect on BUB1 kinase activity” value with BUB1 (1 µM) is on record as “failed to alter the activity”. Besides, in assay [2] (0.5 µM), the “effect on P-S10-H3” value is listed as “no effects”. Besides, the effect on cytokinesis result is given as “does not significantly inhibit” in the assay on HeLa cells [3] (0.5 µM) and “unaffected” in the assay with HeLa cells [3] (1 µM). In [4] (up to 5 µM, nocodazole), the “kinetochore levels of P–CENP-A” value is “not influenced; also recorded: unaltered”. Moreover, the “spindle checkpoint in the presence of Taxol, STLC or BI2536” value with HeLa cells [7] (500 nM Taxol, 10 µM STLC or BI2536) is reported as “caused an override of the checkpoint”. In addition, the “kinetochore localization of ROD, ZWILCH, ZW10, SPINDLY and MAD1” value in assay [6] (0.5 µM reversine, 330 nM nocodazole, MG132) is reported as “largely evicted from kinetochores”. Besides, the “MAD1 localization to kinetochores” value in assay [6] (nocodazole 0.33 or 3.3 µM) was “failed to localize to kinetochores”. In addition, in the assay with CDK1–CYCLIN B, the “effect on CDK1–CYCLIN B kinase activity” value is listed as “failed to alter the activity”. In the assay on HASPIN, the “effect on HASPIN kinase activity” value was “failed to alter the activity”. In addition, the “effect on NEK2A kinase activity” value with NEK2A is listed as “failed to alter the activity”. Moreover, the “effect on PLK1 kinase activity” value in the assay with PLK1 is reported as “failed to alter the activity”. Also, in the assay on PRP4, the “effect on PRP4 kinase activity” value was “failed to alter the activity”. The “effect on TAO1 kinase activity” value with TAO1 is reported as “failed to alter the activity”. Moreover, the “inhibition of spindle bipolarization” value in the assay on HeLa cells [10] was “did not inhibit”. The “inhibition of kinetochore fiber formation” value in the assay with HeLa cells [11] is given as “did not inhibit”. Besides, the “effect on centrosome duplication” value in the assay with HeLa cells [12] is “failed to see an effect”. Further, in the assay with AURORA B, the “kinetochore localization of AURORA B” value is recorded as “unaffected”. Also, in the assay on MAPKs, the “inhibition of MAPKs” value was “not significantly inhibited”.
For `COC[C@H]1OC(=O)c2coc3c2[C@@]1(C)C1=C(C3=O)[C@@H]2CCC(=O)[C@@]2(C)C[C@H]1OC(C)=O` [wortmannin], the “effect on duration of the spindle checkpoint” value in the assay with HeLa cells [7] (100 nM) is on record as “does not affect the duration of the spindle checkpoint”.
